Where two headings read alike, the source gives them in different places.
Legend:
[1] = tested on: subcutaneous rat gliosarcomas; conditions: in vivo; cited from earlier work
[2] = mouse, in vivo, iv; cited from earlier work
[3] = tested on: M-1 tumor; assay: Anti-tumor efficacy BPD-MA dose-response study (FIG. 4); format: in vivo, mice; conditions: 2.0 mg/kg (only group of 0.5, 1.0, 1.5, 2.0 mg/kg); 150 J/cm^2; three hours post injection
Experimental: FIG. 4 illustrates an anti-tumor efficacy dose-response study for BPD-MA, liposomal formulation. […] Light exposure took place three hours after injection.
For comparison, FIGS. 4 and 5 are provided. FIG. 4 summarizes results of a test involving the same mouse-tumor model, in which four different BPD-MA doses were given (0.5, 1.0, 1.5, and 2.0 mg/kg). Light exposure was 150 J/cm^2, administered after a post injection interval of three hours of darkness. Under this regimen, which is similar to current clinical regimens, the only group that was over 50% tumor free at 14 days was that group of mice receiving 2.0 mg/kg.

[4] = tested on: M-1 tumor cells; assay: Dose ranging study: drug dose, light dose and post injection interval, M-1 tumor-bearing mice; format: in vivo, DBA/2 mice
[5] = tested on: M-1 tumor; assay: Light dose-response study at 690 nm (FIG. 5); format: in vivo, mice; conditions: 2 mg/kg BPD-MA, three hours post injection
Experimental: FIG. 5 illustrates a light dose-response study at 690 nm and with a BPD-MA dose of 2 mg/kg. […] Light exposure took place three hours after the injection of 2 mg/kg BPD-MA.
FIG. 5 summarizes results of a test involving the same mouse-tumor model, in which five different light exposures (50, 75, 100, 125 and 150 J/cm^2) were used three hours post injection with 2 mg/kg BPD-MA. Under this regimen, which is similar to current clinical regimens, 75% of the mice receiving 150 J/cm^2 and 50% of the mice receiving 125 J/cm^2 were tumor free at 14 days.

[6] = tested on: M-1 tumor; assay: Comparison PDT with light three hours post injection (FIG. 3), M-1 tumor mouse; conditions: 2.0 mg/kg BPD-MA, 100 J/cm^2, 4 days (FIG. 3)
[7] = mouse, in vivo, iv, cited from earlier work
[8] = tested on: M-1 (murine rhabdomyosarcoma) tumor; assay: Pilot study of shorter post injection intervals: PDT of M-1 tumor-bearing mice, light 15 min after liposomal BPD-MA; format: in vivo, DBA/2 mice; conditions: light 15 min post injection
Experimental: Liposomal BPD was dried and stored frozen at -20° C. in 1 ml aliquots. The appropriate number of aliquots were thawed immediately before use and diluted with 5% dextrose in water for injection into the animals.
Male DBA/2 mice (7-11 weeks old; Charles River Laboratories, St. Constant, Quebec, Canada) were used in these studies, unless otherwise specified. Shaving and depilation removed the hair very effectively from appropriate body surfaces. The mice were shaved and depilated with a commercially available depilator (Nair®) at least one day before being used in the experiments. Following injection the mice were kept in the dark for various lengths of time, as described below. Before and after the experiments the mice were kept in an animal facility with 12 hours of light and 12 hours of dark daily.
An argon pumped dye laser, whose power source was obtained from Spectra Physics (Series 2000, Mountain View, Calif.) and whose 5W argon ion pumped dye laser was obtained from Coherent (Model 599, Palo Alto, Calif.) was used to deliver a columnated beam of light having a wavelength of 690 (±3) nm. The argon laser was aimed at the skin to irradiate the tumor. The time of light exposure was varied to give different light doses, such as 50, 75 and 100 Joules/cm^2.
DBA/2 mice (weight 22±1 g) were used in this study. […]

[9] = tested on: bladder cancer; conditions: human, in vivo, cited from earlier work
[10] = human, in vivo; cited from earlier work
[11] = 0.5 mg/kg, 50 J/cm^2, 30 min post injection, 2 mice, interim
[12] = 0.5 mg/kg, 75 J/cm^2, 15 min post injection, 2 mice, interim
[13] = 0.5 mg/kg, 100 J/cm^2, 15 min post injection, 5 mice, interim
[14] = 1.0 mg/kg, 50 J/cm^2, 15 min post injection, 4 mice, interim
[15] = 1.0 mg/kg, 50 J/cm^2, 30 min post injection, 5 mice, interim
[16] = 1.0 mg/kg, 75 J/cm^2, 15 min post injection, 5 mice, interim
[17] = 1.0 mg/kg, 100 J/cm^2, 15 min post injection, 4 mice, interim

hematoporphyrin derivative
safety of direct injection compared with parenteral injection [1]: direct injection appeared to be safer than parenteral injection

C=Cc1c(C)c2cc3nc(cc4[nH]c(cc5nc(cc1[nH]2)C1(C)C5=CC=C(C(=O)OC)C1C(=O)OC)c(C)c4CCC(=O)O)C(CCC(=O)OC)=C3C (stereo not drawn) [BPD-MB]
Tumor-skin ratios [2]: favorable

benzoporphyrin derivative monoacid ring A [BPD-MA]
tumor free at 14 days [3]: over 50% | mice that developed tumors ([4]; 0.5 mg/kg BPD-MA, 50 J/cm^2, 30 minutes post injection): all mice developed tumors | tumor free at day 7 ([4]; 0.5 mg/kg BPD-MA, 100 J/cm^2, 15 minutes post injection, day 7, five mice): all were tumor free at day 7 | mice that developed tumors by day 14 ([4]; 0.5 mg/kg BPD-MA, 100 J/cm^2, 15 minutes post injection, day 14): Three of five mice | # Tumor-Free, Day 7 ([4]; 0.5 mg/kg, 50 J/cm^2, 1 min post injection, 3 mice, interim): 3 mice | # Tumor-Free, Day 7 ([4]; 0.5 mg/kg, 50 J/cm^2, 15 min post injection, 2 mice, interim): 2 mice | # Tumor-Free, Day 7 [4, 11]: 0 mice | # Tumor-Free, Day 14 [4, 11]: 0 mice | # Tumor-Free, Day 7 column (observations on Day 2 post exposure) ([4]; 0.5 mg/kg, 75 J/cm^2, 1 min post injection, 2 mice, observed Day 2, interim): 2 mice | # Tumor-Free, Day 7 [4, 12]: 2 mice | # Tumor-Free, Day 14 [4, 12]: 2 mice | # Tumor-Free, Day 7 ([4]; 0.5 mg/kg, 100 J/cm^2, 1 min post injection, 3 mice, interim): 3 mice | # Tumor-Free, Day 7 [4, 13]: 5 mice | # Tumor-Free, Day 14 [4, 13]: 2 mice | # Tumor-Free, Day 7 ([4]; 0.5 mg/kg, 100 J/cm^2, 30 min post injection, 2 mice, interim): 2 mice | # Tumor-Free, Day 7 ([4]; 1.0 mg/kg, 50 J/cm^2, 1 min post injection, 4 mice, interim): 4 mice | # Tumor-Free, Day 7 [4, 14]: 4 mice | # Tumor-Free, Day 14 [4, 14]: 4 mice | # Tumor-Free, Day 7 [4, 15]: 4 mice | # Tumor-Free, Day 14 [4, 15]: 4 mice | # Tumor-Free, Day 7 [4, 16]: 5 mice | # Tumor-Free, Day 14 [4, 16]: 4 mice | # Tumor-Free, Day 7 ([4]; 1.0 mg/kg, 75 J/cm^2, 30 min post injection, 5 mice, interim): 4 mice | # Tumor-Free, Day 7 [4, 17]: 4 mice | # Tumor-Free, Day 14 [4, 17]: 4 mice | tumor free, animals followed to day 14 ([4]; all regimens of Table 1, day 14, interim): most are tumor free | tumor free at 14 days ([5]; 125 J/cm^2): 50% | tumor free at 14 days ([5]; 150 J/cm^2): 75% | survival of mouse [6]: alive | tumor eradication [6]: the tumor was eradicated | tumor palpability [6]: The tumor was not palpable | BPD-MA in the tumor that was active ([7]; 3 h): 100% | BPD-MA in the tumor that was active ([7]; 24 h): 39% | degradation in livers and kidneys compared with tumors [7]: Both livers and kidneys degraded BPD-MA more quickly than did the tumors | survival of mouse ([8]; 0.5 mg/kg BPD-MA, 75 J/cm^2, 24 hours (FIG. 2)): alive | survival of mouse ([8]; 1 mg/kg BPD-MA, 100 J/cm^2, 48 hours (FIG. 1)): alive

porfimer sodium
time of occurrence of skin phototoxicity ([9]; iv, 2 mg/kg): ≤ 10 days | patients with irritative bladder symptoms [9]: Five | duration of photosensitivity (patient warning) [10]: six | relationship of photosensitivity to injected drug dose [10]: no apparent relationship of photosensitivity to injected drug dose

Source: patent US5705518A, “Method of activating photosensitive agents” (University of British Columbia, priority 1995, dated 1998)
